“And” between values parts separate entries of the source, which are not always exact repeats. Identical values can stand only once. Inconclusive results and toxic doses are left out. No stated cut-off is given here; in the data, active means T/C of 150% or more; inactive means T/C below 125%. Square brackets hold non-standard residues; d marks the D form. Peptide text beside a SMILES is read from it. * marks the point of attachment. ξ: configuration not given here. Cbz = O=C(OCc1ccccc1)*; ξNva = CCCC(N)C(=O)O
Tested on: L1210 leukemia ip in BDF1 mice, survival T/C
Assay: NCI In Vivo Anticancer Drug Screen. Data for tumor model L1210 Leukemia (intraperitoneal) in B6D2F1 (BDF1) mice
Conditions: endpoint: mean survival time, higher = longer survival
How it was run: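 In this screen, tumor-bearing mice given compound are compared to those given vehicle, and their survival values are reported as a treated-to-control quotient.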

[1] = dose: 100.0 mg/kg/injection, schedule: Q04DX003 (ip), vehicle: gum acacia
[2] = dose: 200.0 mg/kg/injection, schedule: Q04DX003 (ip), vehicle: gum acacia
[3] = dose: 400.0 mg/kg/injection, schedule: Q04DX003 (ip), vehicle: gum acacia
[4] = dose: 100.0 mg/kg/injection, schedule: Q01DX001 (ip), vehicle: Klucel (hydroxypropylcellulose) (HPC)
[5] = dose: 200.0 mg/kg/injection, schedule: Q01DX001 (ip), vehicle: Klucel (hydroxypropylcellulose) (HPC)
[6] = dose: 100.0 mg/kg/injection, schedule: Q01DX009 (ip), vehicle: Klucel (hydroxypropylcellulose) (HPC)
[7] = dose: 100.0 mg/kg/injection, schedule: Q04DX003 (ip), vehicle: Klucel (hydroxypropylcellulose) (HPC)
[8] = dose: 200.0 mg/kg/injection, schedule: Q01DX009 (ip), vehicle: Klucel (hydroxypropylcellulose) (HPC)
[9] = dose: 200.0 mg/kg/injection, schedule: Q04DX003 (ip), vehicle: Klucel (hydroxypropylcellulose) (HPC)
[10] = dose: 400.0 mg/kg/injection, schedule: Q01DX009 (ip), vehicle: Klucel (hydroxypropylcellulose) (HPC)
[11] = dose: 400.0 mg/kg/injection, schedule: Q04DX003 (ip), vehicle: Klucel (hydroxypropylcellulose) (HPC)
[12] = dose: 50.0 mg/kg/injection, schedule: Q01DX001 (ip), vehicle: carboxymethylcellulose (CMC)
[13] = dose: 100.0 mg/kg/injection, schedule: Q01DX001 (ip), vehicle: carboxymethylcellulose (CMC)
[14] = dose: 200.0 mg/kg/injection, schedule: Q01DX001 (ip), vehicle: carboxymethylcellulose (CMC)
[15] = dose: 100.0 mg/kg/injection, schedule: Q04DX003 (ip), vehicle: saline
[16] = dose: 200.0 mg/kg/injection, schedule: Q04DX003 (ip), vehicle: saline
[17] = dose: 400.0 mg/kg/injection, schedule: Q04DX003 (ip), vehicle: saline
[18] = dose: 25.0 mg/kg/injection, schedule: Q01DX009 (ip), vehicle: saline with Tween-80
[19] = dose: 50.0 mg/kg/injection, schedule: Q01DX009 (ip), vehicle: saline with Tween-80
[20] = dose: 50.0 mg/kg/injection, schedule: Q01DX001 (ip), vehicle: saline

Measured: T/C

c1ccc(C23c4ccccc4C2c2ccccc23)nc1 (configuration not stated)
inactive: dose: 12.5 mg/kg/injection, schedule: Q01DX009 (ip), vehicle: gum acacia 104 % of control | dose: 25.0 mg/kg/injection, schedule: Q01DX009 (ip), vehicle: gum acacia 100 % of control | dose: 50.0 mg/kg/injection, schedule: Q01DX009 (ip), vehicle: gum acacia 100 % of control | [1] 97 % of control | [2] 97 % of control | [3] 104 % of control

COc1ccc2c(c1)CCC1C2=CCC2C1C(=O)CCC2(OC)OC (configuration not stated)
inactive: dose: 50.0 mg/kg/injection, schedule: Q01DX001 (ip), vehicle: Klucel (hydroxypropylcellulose) (HPC) 98 % of control | [4] 101 % of control | [5] 96 % of control

COC(=O)C(=[N+]=[N-])C(=O)OC
inactive: [4] 92 % of control | [6] 98 % of control | [7] 102 % of control | [5] 92 % of control | [8] 98 % of control | [9] 101 % of control | dose: 400.0 mg/kg/injection, schedule: Q01DX001 (ip), vehicle: Klucel (hydroxypropylcellulose) (HPC) 93 % of control | [10] 107 % of control | [11] 104 % of control

O=[N+]([O-])c1ccc(N/N=C/C(Br)(Br)Br)c([N+](=O)[O-])c1
inactive: [12] 99 % of control | [13] 94 % of control

c1ccc2c(OCCN3CC3)nccc2c1
inactive: [13] 103 % of control | [14] 113 % of control

O=[N+]([O-])c1cc(/C=N\N=C\c2ccco2)ccc1Cl
inactive: dose: 5.0 mg/kg/injection, schedule: Q01DX001 (ip), vehicle: saline 100 % of control | dose: 10.0 mg/kg/injection, schedule: Q01DX001 (ip), vehicle: saline 98 % of control | dose: 20.0 mg/kg/injection, schedule: Q01DX001 (ip), vehicle: saline 96 % of control | dose: 40.0 mg/kg/injection, schedule: Q01DX001 (ip), vehicle: saline 88 % of control | dose: 80.0 mg/kg/injection, schedule: Q01DX001 (ip), vehicle: saline 88 % of control

CC(=O)CCCSCCOC(C)=O
inactive: [6] 95 % of control | [8] 101 % of control | [10] 101 % of control

COC(=O)CCN1CCC1
inactive: dose: 100.0 mg/kg/injection, schedule: Q04DX002 (ip), vehicle: saline 97 % of control | dose: 200.0 mg/kg/injection, schedule: Q04DX002 (ip), vehicle: saline 101 % of control | dose: 400.0 mg/kg/injection, schedule: Q04DX002 (ip), vehicle: saline 97 % of control

C=CCOCCO
inactive: dose: 100.0 mg/kg/injection, schedule: Q01DX009 (ip), vehicle: saline 108 % of control | [15] 100 % of control | dose: 200.0 mg/kg/injection, schedule: Q01DX009 (ip), vehicle: saline 108 % of control | [16] 95 % of control | dose: 400.0 mg/kg/injection, schedule: Q01DX009 (ip), vehicle: saline 101 % of control | [17] 100 % of control

CNC(Cc1ccccc1)c1ccccc1 (configuration not stated)
inactive: [18] 94 % of control | [19] 101 % of control | dose: 100.0 mg/kg/injection, schedule: Q01DX009 (ip), vehicle: saline with Tween-80 99 % of control

CC(=O)OCC(OC(C)=O)C(OC(C)=O)C(COC(C)=O)OC(C)=O (configuration not stated)
inactive: dose: 25.6 mg/kg/injection, schedule: Q04DX002 (ip), vehicle: saline with Tween-80 108 % of control | dose: 64.0 mg/kg/injection, schedule: Q04DX002 (ip), vehicle: saline with Tween-80 104 % of control | dose: 160.0 mg/kg/injection, schedule: Q04DX002 (ip), vehicle: saline with Tween-80 93 % of control | dose: 400.0 mg/kg/injection, schedule: Q04DX002 (ip), vehicle: saline with Tween-80 93 % of control

Cc1ccc(C(C)C)cc1OCO
inactive: dose: 20.0 mg/kg/injection, schedule: Q01DX Z (ip), vehicle: methylcellulose (MC) 98 % of control | dose: 30.0 mg/kg/injection, schedule: Q01DX Z (ip), vehicle: methylcellulose (MC) 105 % of control

c1ccc([P+](Cc2ccc3c(c2)OCO3)(c2ccccc2)c2ccccc2)cc1
inactive: dose: 12.5 mg/kg/injection, schedule: Q01DX001 (ip), vehicle: saline 98 % of control | dose: 12.5 mg/kg/injection, schedule: Q01DX009 (ip), vehicle: saline 101 % of control | dose: 12.5 mg/kg/injection, schedule: Q04DX003 (ip), vehicle: saline 95 % of control | dose: 25.0 mg/kg/injection, schedule: Q01DX001 (ip), vehicle: saline 95 % of control | dose: 25.0 mg/kg/injection, schedule: Q04DX003 (ip), vehicle: saline 106 % of control | [20] 96 % of control | dose: 50.0 mg/kg/injection, schedule: Q04DX003 (ip), vehicle: saline 88 % of control

CCC/C=C(\C)C#CC1=CCCCC1
inactive: [12] 97 % of control | [13] 100 % of control | [14] 94 % of control | dose: 400.0 mg/kg/injection, schedule: Q01DX001 (ip), vehicle: carboxymethylcellulose (CMC) 97 % of control

Cc1cnc(N(C)CC(=O)O)nc1-c1ccccc1O
inactive: dose: 100.0 mg/kg/injection, schedule: Q04DX002 (ip), vehicle: Klucel (hydroxypropylcellulose) (HPC) 96 % of control | dose: 200.0 mg/kg/injection, schedule: Q04DX002 (ip), vehicle: Klucel (hydroxypropylcellulose) (HPC) 89 % of control

C[N+]1(C)CCN(c2ccccc2)CC1
inactive: dose: 9.38 mg/kg/injection, schedule: Q01DX001 (ip), vehicle: saline 108 % of control | dose: 18.75 mg/kg/injection, schedule: Q01DX001 (ip), vehicle: saline 105 % of control

N#CC(C#N)C1c2ccccc2Nc2ccccc21
inactive: dose: 12.5 mg/kg/injection, schedule: Q01DX009 (ip), vehicle: saline with Tween-80 89 % of control | [18] 89 % of control | [19] 98 % of control and 89 % of control

O=C(O)CN(Cc1ccccc1)C(=O)COc1ccc(Cl)c(Cl)c1
inactive: [1] 100 % of control | [2] 92 % of control | [3] 91 % of control

O=C1NCCNC1=O
inactive: [15] 101 % of control | [16] 100 % of control | [17] 105 % of control

Cc1cc2c(c(=O)n1C)COC2=O
inactive: dose: 100.0 mg/kg/injection, schedule: Q04DX003 (ip), vehicle: other 100 % of control | dose: 200.0 mg/kg/injection, schedule: Q04DX003 (ip), vehicle: other 100 % of control | dose: 400.0 mg/kg/injection, schedule: Q04DX003 (ip), vehicle: other 98 % of control

CCCC(NC(=O)CNC(=O)CNC(=O)OCc1ccccc1)C(=O)O (stereo not drawn) (Cbz-Gly-Gly-[ξNva]-OH)
inactive: [7] 101 % of control | [9] 106 % of control | [11] 106 % of control

O=C1OC(=O)C2C1C=C(c1ccccc1)C1C3C=CC(C4C(=O)OC(=O)C34)C21 (configuration not stated)
inactive: [20] 98 % of control | dose: 100.0 mg/kg/injection, schedule: Q01DX001 (ip), vehicle: saline 101 % of control | dose: 200.0 mg/kg/injection, schedule: Q01DX001 (ip), vehicle: saline 104 % of control | dose: 400.0 mg/kg/injection, schedule: Q01DX001 (ip), vehicle: saline 106 % of control

Source: PubChem BioAssay AID248 (DTP/NCI, 2004)
